Results: patent US5883133A, “Substituted cinnamic acid guanidides, a process for their preparation, their use as medicaments or diagnostic agents and medicaments comprising them” (priority 1995, dated 1999)
Counter-ions that a name gives are not always drawn.

Legend:
[1] = target: T1, Na^+ /H^+ exchanger of rabbit erythrocytes (Oryctolagus cuniculus, UniProt P23791); test: Inhibition of the Na+/H+ exchanger of rabbit erythrocytes (amiloride-sensitive sodium influx, flame photometry); assay type: cell-based, rabbit (White New Zealand); details: pH 7.4, 37° C., hyperosmolar salt/sucrose medium
T1 construct: exchanger of rabbit erythrocytes; endogenous in cells; host or cells: erythrocytes from ear-artery blood of White New Zealand rabbits (Ivanovas) fed 2% cholesterol for six weeks
Excerpt: Inhibitors of the Na^+ /H^+ exchanger of rabbit erythrocytes:
White New Zealand rabbits (Ivanovas) were given a standard diet with 2% of cholesterol for six weeks in order to activate the Na^+ /H^+ exchange so that the Na^+ influx into the erythrocytes via Na^+ /H^+ exchange can be determined by flame photometry. The blood was taken from the ear arteries and rendered uncoagulable by 25 IU/ml of heparin potassium. A portion of each sample was used for duplication determination of the hematocrit by centrifugation. Aliquots of in each case 100 μl were used for measurement of the initial Na^+ content of the erythrocytes.
To determine the amiloride-sensitive sodium influx, 100 μl of each blood sample were each incubated at pH 7.4 and 37° C. in 5 ml of a hyperosmolar salt/sucrose medium (mmol/l: 140 NaCl, 3 KCl, 150 sucrose, 0.1 ouabain, 20 tris-hydroxymethyl-aminomethane). The erythrocytes were then washed three times with ice-cold MgCl2 /ouabain solution (mmol/l: 112 MgCl2, 0.1 ouabain) and hemolyzed in 2.0 ml of distilled water. The intracellular sodium content was determined by flame photometry.
The net Na^+ influx was calculated from the difference between the initial sodium levels and the sodium content of the erythrocytes after incubation. […]

rat hearts = details: isolated rat hearts, cited from earlier work

T1 sequence (P23791 whole entry): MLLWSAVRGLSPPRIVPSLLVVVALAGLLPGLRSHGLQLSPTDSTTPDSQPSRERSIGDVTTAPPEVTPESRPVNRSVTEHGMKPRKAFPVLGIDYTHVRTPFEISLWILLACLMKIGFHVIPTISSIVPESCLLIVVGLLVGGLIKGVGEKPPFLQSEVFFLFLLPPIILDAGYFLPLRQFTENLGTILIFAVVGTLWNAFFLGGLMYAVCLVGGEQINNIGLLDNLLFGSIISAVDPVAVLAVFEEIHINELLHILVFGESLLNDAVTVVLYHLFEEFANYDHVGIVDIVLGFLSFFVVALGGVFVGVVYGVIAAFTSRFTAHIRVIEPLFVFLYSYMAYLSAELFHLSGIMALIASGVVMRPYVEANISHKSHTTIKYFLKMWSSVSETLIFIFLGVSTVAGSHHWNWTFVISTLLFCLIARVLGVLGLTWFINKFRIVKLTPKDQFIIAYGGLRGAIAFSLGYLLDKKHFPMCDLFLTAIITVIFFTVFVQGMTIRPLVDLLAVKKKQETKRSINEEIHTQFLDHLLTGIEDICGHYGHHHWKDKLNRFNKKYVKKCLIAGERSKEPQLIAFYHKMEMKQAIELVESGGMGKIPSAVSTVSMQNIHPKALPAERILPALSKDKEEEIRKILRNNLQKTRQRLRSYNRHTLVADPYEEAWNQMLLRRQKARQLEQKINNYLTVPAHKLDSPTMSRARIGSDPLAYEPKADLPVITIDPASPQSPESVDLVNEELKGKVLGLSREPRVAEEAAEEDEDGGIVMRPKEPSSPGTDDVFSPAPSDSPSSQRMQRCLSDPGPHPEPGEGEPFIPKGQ

| IC50 [1] | Structure (SMILES) | also measured |
| --- | --- | --- |
| < 1000 nM | C/C(=C\c1ccc(N(C)C)cc1)C(=O)N=C(N)N [Example 1, E-3-(4-Dimethylaminophenyl)-2-methyl-propenoic acid guanidide hydrochloride] |  |
| < 1000 nM | C/C(=C\c1ccc(OCCCN(C)C)cc1)C(=O)N=C(N)N [Example 2, E-3-[4-(3-Dimethylaminopropoxy)phenyl)-2-methyl-propenoic acid guanidide dihydrochloride] |  |
|  | NC(N)=NC(=O)c1nc(Cl)c(N)nc1N [amiloride] | suppression of artificially induced ventricular fibrillation (rat hearts; Eur. Heart J. 9 (suppl. 1): 167 (1988)): suppressed completely |
|  | CCN(c1nc(N)c(C(=O)N=C(N)N)nc1Cl)C(C)C [ethylisopropylanmiloride, Ethylisopropylamiloride] | potency in ventricular fibrillation model relative to amiloride (rat hearts; compared with amiloride): even more potent than amiloride |
